Like-named read-outs stand apart in the source and are kept apart here. Marks after values point to notes of the source that are not given here.
Key:
[1] = system: MES-induced seizures in mice; conditions: i.p., pretreatment 0.5 h (LEV 1.0 h); cited from earlier work
[2] = system: 6 Hz (32 mA) seizures in mice; conditions: i.p., pretreatment 0.5 h (LEV 1.0 h); cited from earlier work
[3] = system: 6 Hz (44 mA) seizures in mice; conditions: i.p., pretreatment 0.5 h; cited from earlier work
[4] = system: MES-induced seizures in mice; experiment: Maximal electroshock seizure (MES) test; assay type: in vivo; conditions: for protection in MES screening / responders at 100 mg/kg: 100 mg/kg i.p., 0.5 h; for protection in MES screening: four mice; for responders at 100 mg/kg / ED50: Mus musculus, ip; for responders at 100 mg/kg: read-out: MES screening: number of mice protected/number of mice tested (converted); for ED50: mice, pretreatment time 0.5 h, (95% confidence limits)
Method: (§1) Adult male Albino Swiss mice that weighed between 22 and 26 g were used in the in vivo studies. They were housed under standardized housing conditions in colony cages and had free access to food as well as tap water. The animals were left to adapt under laboratory conditions for 7 days. All procedures involving animals and their care were performed in accordance with the current European Community and Polish legislation on animal experimentation.
(§2) In the initial screening studies, four mice per group were randomly assigned to each experimental group (each mouse was used only once). To evaluate the ED50 or TD50 values, 3–4 groups that consisted of eight animals were injected with various doses of tested compounds. The protective indexes (PIs) for the compounds that were investigated and reference ASDs were calculated by dividing the TD50 value, as determined in the chimney test (or rotarod test), by the respective ED50 value, as determined in the MES, scPTZ, or 6 Hz (32 mA or 44 mA) tests (PI = TD50/ED50). The PIs is a measure of the potential therapeutic window of the tested agent.
(§3) All substances were suspended in Tween 80 (1% aqueous solution) and administered i.p. as a single injection at a dose of 10 mL/kg. On each day of experimentation, fresh solutions were prepared. The results are summarized in Table S1 (screening data) and Table 2 (ED50, TD50, and PI values, see Section 3 Results and Discussion).
(§4) The detailed in vivo procedures are described elsewhere: the maximal electroshock seizure test (MES), the subcutaneous pentylenetetrazole seizure test (scPTZ), the 6 Hz psychomotor seizure model (32 mA and 44 mA), and the chimney test.
(§5) The basic animal seizure models such as the MES, 6 Hz (32 mA or 44 mA), and the scPTZ are still a standard in the discovery and development of new ASDs. In vivo screening approaches enable the identification of compounds with unidentified and potentially novel mechanisms of action besides substances with well-established pharmacodynamics. Bearing in mind the aforementioned facts, compounds 45–66 were initially studied in the MES test and in the 6 Hz seizure model (32 mA) after intraperitoneal (i.p.) administration at a screening dose of 100 mg/kg in mice at a time point of 0.5 h (the screening group consisted of four mice, the results obtained are summarized in Table S1). It should be stressed that the MES test is an experimental model of human tonic–clonic epilepsy as well as partial convulsions with or without secondary generalization, the 6 Hz model (32 mA) corresponds to human focal epilepsy, whereas the scPTZ test relates to human generalized absence or myoclonic seizures.
(§6) We also established the median toxic doses (TD50) in the chimney test 0.5 h post i.p. administration of these compounds. Both the aforementioned parameters enabled the calculation of the protective indexes (PIs).

[5] = system: 6 Hz (32 mA) seizures in mice; experiment: 6 Hz (32 mA) psychomotor seizure model; assay type: in vivo; conditions: for responders at 100 mg/kg / ED50: Mus musculus, ip; for ED50: mice, pretreatment time 0.5 h, (95% confidence limits)
Method: as §1, §2, §3, §4, §5, §6

[6] = system: scPTZ-induced seizures in mice; experiment: Subcutaneous pentylenetetrazole (scPTZ) seizure test; assay type: in vivo; conditions: 100 mg/kg i.p., 0.5 h
Method: as §1, §2, §3, §4, §5

mice [7] = experiment: Capsaicin-induced hypothermia model / core body temperature; assay type: in vivo; conditions: compound 60 50 mg/kg, BCTC 20 mg/kg
Method: Capsaicin was dissolved in 1% DMSO and administered at a dose of 5 mg/kg at a time point 0 min. Compound 60 and BCTC (positive control) were suspended in 1% Tween 80 and administered 15 min before capsaicin (at time point -15 min). All compounds were injected i.p. at a constant volume of 10 mL/kg. Control animals received the respective vehicles (1% DMSO or 1% Tween 80). Changes in the rectal temperature were measured using an electronic thermometer (ThermoWorks, Alpine, UT, USA) by inserting the rectal probe to a depth of ~2 cm into the rectum of the mouse. The measurements were taken at −15, 0, 15, 30, 60, 90, 120, and 180 min. The differences in the rectal temperature from baseline (time -15 min for groups receiving compound 60 and BCTC in combination with vehicle or time 0 min for groups receiving vehicle and capsaicin or compound 60 and BCTC in combination with capsaicin) to the respective time point ΔT (°C) were then calculated and analyzed. The results are shown in Figure 4 (see Section 3 Results and Discussion).
Figure 4 Effects of compound 60 and BCTC alone (A) or in combination with capsaicin (B) on the core body temperature in mice. Capsaicin (CPS) was injected at 0 min, as indicated by the arrow. Compound 60 or BCTC were administered 15 min prior to CPS injection. The temperature was measured at −15, 0, 15, 30, 60, 90, 120, and 180 min. Since body temperature returned to control values 60 min after CPS injection, subsequent measurements are not shown. Control animals received vehicles (1% DMSO or 1% Tween 80). All the compounds were administered i.p. Each experimental group consisted of seven to eight animals. The data are presented as the mean differences (ΔT) in rectal temperature from baseline (time −15 for A and time 0 for B) to the respective time point. The data were analyzed with one-way ANOVA followed by Tukey’s post hoc test. ** p < 0.01, *** p < 0.001, **** p < 0.0001 vs. the control group; ^#### p < 0.0001 vs. the CPS-treated group.

Na+ channel (site 2) = Na+ channel (site 2) radioligand binding; conditions: 10 µM; rat cerebral cortex
[8] = molecular target: T1, Calcium Cav1.2 channels (dihydropyridine site) (Homo sapiens, UniProt Q13936); experiment: Calcium Cav1.2 channel binding (dihydropyridine site, antagonist radioligand); conditions: 10 µM; human recombinant HEK-293 cell; read-out: % Inhibition of Control Specific Binding, Cav1.2 (dihydropyridine site)
T1 construct: host or cells: HEK-293

[9] = molecular target: T2, Cav1.2 (h) calcium ion channel (Homo sapiens, UniProt Q13936); experiment: Cav1.2 (h) calcium ion channel cell-based antagonist calcium flux assay; conditions: HEK293, human recombinant HEK-293 cell, read-out: % Inhibition of control agonist response, Cav1.2 calcium flux
T2 construct: Eurofins
T2 sequence (Q13936 whole entry): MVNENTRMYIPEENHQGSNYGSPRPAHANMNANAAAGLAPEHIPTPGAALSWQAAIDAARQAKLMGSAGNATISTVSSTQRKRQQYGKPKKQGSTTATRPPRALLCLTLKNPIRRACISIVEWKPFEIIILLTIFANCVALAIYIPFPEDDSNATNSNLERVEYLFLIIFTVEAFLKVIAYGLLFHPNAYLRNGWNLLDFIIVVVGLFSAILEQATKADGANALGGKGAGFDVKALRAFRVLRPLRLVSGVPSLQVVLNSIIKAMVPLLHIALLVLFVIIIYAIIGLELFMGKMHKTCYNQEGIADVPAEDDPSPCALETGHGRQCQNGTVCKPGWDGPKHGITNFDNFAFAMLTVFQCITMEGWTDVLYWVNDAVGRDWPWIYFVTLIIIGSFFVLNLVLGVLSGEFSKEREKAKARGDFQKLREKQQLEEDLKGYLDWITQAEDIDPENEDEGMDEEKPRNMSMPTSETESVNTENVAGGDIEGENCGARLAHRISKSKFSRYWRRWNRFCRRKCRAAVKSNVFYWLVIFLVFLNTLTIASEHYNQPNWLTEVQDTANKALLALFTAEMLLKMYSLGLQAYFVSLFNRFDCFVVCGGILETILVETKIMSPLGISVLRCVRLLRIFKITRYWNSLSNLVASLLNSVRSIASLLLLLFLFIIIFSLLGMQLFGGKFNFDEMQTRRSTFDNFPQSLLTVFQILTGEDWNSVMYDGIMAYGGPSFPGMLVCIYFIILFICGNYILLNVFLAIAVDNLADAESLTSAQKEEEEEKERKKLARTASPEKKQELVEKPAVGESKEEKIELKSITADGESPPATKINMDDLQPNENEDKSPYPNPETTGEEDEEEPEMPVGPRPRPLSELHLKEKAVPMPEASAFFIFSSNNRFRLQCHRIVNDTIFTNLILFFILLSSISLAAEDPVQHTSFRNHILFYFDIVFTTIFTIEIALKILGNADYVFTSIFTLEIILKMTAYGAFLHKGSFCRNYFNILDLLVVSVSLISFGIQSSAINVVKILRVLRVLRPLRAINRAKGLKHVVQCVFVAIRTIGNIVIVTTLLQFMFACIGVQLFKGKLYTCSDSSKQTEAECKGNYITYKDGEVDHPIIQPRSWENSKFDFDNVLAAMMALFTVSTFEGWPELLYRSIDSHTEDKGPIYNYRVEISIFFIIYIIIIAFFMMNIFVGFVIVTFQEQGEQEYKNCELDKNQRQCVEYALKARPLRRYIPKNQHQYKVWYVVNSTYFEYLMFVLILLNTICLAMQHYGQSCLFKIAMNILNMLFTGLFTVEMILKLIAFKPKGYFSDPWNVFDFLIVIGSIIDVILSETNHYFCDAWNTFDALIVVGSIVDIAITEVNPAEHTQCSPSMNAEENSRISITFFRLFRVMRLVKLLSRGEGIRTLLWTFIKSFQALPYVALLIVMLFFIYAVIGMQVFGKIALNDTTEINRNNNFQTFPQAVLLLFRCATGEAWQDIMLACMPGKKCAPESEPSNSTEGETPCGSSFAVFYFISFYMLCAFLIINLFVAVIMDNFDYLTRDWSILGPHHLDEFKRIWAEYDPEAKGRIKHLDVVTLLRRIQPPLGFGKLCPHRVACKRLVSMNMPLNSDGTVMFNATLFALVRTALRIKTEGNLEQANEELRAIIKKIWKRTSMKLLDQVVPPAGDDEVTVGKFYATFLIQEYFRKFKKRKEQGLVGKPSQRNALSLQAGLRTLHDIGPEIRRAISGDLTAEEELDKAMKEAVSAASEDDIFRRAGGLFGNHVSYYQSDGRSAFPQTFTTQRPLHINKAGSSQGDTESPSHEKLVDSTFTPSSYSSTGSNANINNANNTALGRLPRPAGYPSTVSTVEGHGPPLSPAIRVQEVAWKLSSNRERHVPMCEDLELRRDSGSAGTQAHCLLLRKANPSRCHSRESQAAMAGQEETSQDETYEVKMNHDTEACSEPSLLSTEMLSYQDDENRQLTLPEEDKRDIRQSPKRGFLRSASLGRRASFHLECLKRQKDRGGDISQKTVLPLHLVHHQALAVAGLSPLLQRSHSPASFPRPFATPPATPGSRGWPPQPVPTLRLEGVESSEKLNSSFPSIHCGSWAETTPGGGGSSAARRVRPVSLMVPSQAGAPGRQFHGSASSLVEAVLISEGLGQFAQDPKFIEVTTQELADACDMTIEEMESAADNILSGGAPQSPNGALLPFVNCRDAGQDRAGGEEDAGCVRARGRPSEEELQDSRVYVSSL
T2 sequence (Q08289 whole entry partner): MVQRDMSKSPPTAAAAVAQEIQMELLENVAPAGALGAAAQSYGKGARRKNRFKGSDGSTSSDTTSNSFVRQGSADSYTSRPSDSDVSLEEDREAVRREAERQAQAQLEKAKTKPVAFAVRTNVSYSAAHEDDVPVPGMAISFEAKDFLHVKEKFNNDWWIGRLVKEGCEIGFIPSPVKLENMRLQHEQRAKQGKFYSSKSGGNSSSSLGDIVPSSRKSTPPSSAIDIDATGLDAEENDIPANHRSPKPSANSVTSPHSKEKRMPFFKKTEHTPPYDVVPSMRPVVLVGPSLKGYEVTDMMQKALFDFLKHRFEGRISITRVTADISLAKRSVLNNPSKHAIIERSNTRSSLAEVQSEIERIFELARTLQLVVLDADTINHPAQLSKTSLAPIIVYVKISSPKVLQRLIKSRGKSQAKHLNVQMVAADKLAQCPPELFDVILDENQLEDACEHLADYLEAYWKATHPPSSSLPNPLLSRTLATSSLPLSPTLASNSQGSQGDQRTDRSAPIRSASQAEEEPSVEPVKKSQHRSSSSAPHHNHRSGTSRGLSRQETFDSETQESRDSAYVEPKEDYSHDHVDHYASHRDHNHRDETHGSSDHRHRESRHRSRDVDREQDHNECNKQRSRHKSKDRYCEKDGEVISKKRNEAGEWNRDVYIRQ
T2 sequence (P54289 25-956 partner limits assumed): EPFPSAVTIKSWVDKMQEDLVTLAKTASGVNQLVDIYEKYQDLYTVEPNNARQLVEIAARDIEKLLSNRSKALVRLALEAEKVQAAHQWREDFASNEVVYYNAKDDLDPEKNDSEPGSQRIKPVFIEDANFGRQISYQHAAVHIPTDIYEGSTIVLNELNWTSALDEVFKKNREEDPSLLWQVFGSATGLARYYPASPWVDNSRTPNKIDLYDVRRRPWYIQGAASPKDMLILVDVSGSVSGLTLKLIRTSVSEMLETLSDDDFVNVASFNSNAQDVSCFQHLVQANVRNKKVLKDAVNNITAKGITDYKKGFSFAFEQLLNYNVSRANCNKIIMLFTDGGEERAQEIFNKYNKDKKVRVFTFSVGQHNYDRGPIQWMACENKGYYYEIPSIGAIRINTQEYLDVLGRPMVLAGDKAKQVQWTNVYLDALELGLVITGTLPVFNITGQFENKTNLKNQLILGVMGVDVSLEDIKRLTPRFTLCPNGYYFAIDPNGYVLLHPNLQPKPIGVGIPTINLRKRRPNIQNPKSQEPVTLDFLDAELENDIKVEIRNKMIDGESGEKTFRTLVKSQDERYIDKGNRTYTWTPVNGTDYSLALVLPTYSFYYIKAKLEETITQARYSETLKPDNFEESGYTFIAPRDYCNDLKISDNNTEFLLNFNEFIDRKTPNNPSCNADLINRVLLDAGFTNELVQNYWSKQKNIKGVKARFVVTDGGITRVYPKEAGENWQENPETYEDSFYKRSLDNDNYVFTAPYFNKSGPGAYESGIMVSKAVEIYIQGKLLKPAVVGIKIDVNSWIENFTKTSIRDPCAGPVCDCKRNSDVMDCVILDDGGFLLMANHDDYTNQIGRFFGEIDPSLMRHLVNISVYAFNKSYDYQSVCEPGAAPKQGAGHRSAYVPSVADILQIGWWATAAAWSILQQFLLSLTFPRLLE
T2 sequence (P54289 957-1103 partner limits assumed): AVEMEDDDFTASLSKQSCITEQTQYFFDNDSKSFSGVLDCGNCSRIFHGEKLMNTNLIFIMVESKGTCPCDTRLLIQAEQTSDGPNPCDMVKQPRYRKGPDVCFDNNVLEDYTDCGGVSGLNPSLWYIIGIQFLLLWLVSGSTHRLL
Method: (§7) Binding/functional studies were carried out commercially in Eurofins Laboratories (Poitiers, France) and Eurofins Panlabs Discovery Services Taiwan, Ltd. (New Taipei City, Taiwan) using testing procedures that were reported previously (for details see Table S2).
(§8) Table S2. Radioligand binding and functional assays. […]
TRPV1 (VR1) (h) (antagonist effect)
Cav1.2 (L-type) (h) calcium ion channel cell-based antagonist calcium flux assay
Assays were performed commercially in Eurofins Laboratories (Poitiers, France) or Eurofins Panlabs Discovery
Services Taiwan, Ltd. (New Taipei City, Taiwan). […]

TRPV1 (VR1) (h) [10] = molecular target: T3, TRPV1 (VR1) (h) (Homo sapiens, UniProt Q8NER1); experiment: TRPV1 (VR1) (h) antagonist effect functional assay; assay type: cell-based; conditions: human recombinant CHO cells, read-out: % Inhibition of control agonist response, TRPV1 (antagonist effect)
T3 construct: host or cells: CHO
T3 sequence (Q8NER1 whole entry): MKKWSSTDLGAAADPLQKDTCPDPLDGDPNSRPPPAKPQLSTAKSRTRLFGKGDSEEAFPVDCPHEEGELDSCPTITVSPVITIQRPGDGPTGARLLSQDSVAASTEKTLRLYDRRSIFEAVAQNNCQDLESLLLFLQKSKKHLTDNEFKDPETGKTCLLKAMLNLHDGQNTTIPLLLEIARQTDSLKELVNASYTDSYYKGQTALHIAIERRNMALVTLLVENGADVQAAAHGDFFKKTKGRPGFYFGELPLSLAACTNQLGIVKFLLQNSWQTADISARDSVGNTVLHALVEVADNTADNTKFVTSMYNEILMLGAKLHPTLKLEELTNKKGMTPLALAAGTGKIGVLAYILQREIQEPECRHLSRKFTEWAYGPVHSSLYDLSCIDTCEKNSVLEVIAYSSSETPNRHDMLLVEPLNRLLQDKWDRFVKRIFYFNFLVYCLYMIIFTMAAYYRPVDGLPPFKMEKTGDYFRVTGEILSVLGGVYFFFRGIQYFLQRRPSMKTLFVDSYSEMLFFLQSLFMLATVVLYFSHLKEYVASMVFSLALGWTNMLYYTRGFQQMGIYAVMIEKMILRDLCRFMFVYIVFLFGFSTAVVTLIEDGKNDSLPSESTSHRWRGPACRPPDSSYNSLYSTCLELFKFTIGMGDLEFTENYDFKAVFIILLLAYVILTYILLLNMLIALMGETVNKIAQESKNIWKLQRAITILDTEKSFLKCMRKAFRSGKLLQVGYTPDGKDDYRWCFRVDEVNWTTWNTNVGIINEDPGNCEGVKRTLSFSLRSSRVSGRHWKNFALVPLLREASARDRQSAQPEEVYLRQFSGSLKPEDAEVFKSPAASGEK
Method: as §7, §8
Assays were performed commercially in Eurofins Laboratories (Poitiers, France) or Eurofins Panlabs Discovery Services Taiwan, Ltd. (New Taipei City, Taiwan).
Table S3. In vitro TRPV1 channel antagonist activity for compounds 45–66 (concentration of 100 µM). […]
Cmpd % Inhibition of control Cmpd % Inhibition of control agonist responsea agonist responsea
*Source: human recombinant CHO cells. a Results showing activity higher than 50% are considered to represent […]
variability of the sign al around the control level. Assays were performed commercially in Eurofins Laboratories

recombinant human CYP2C9 = molecular target: T4, recombinant human CYP2C9 (Homo sapiens, UniProt P11712); experiment: CYP2C9 P450-Glo luminescent assay; assay type: in vitro ADME
T4 construct: purchased Promega (Madison, WI, USA)
Method: The risk of potential DDIs was predicted with use of luminescent CYP3A4, 2D6, and 2C9 P450-Glo assays (Figure 6). […] However, such an effect was also observed in our previous studies for other pyrrolidine-2,5-dione derivatives. […] However, the potential risk of DDI of 60 was still assessed as very low, and was compared to the selective CYP2C9 inhibitor sulfaphenazole (Figure 6C).
The data were analyzed with one-way ANOVA, followed by Bonferroni’s Multiple Comparison Post Test (Graph Pad Prism 8.0.1 software, San Diego, CA, USA)): * p < 0.05, ** p < 0.01, *** p < 0.001 **** p < 0.0001. The compounds were examined in triplicate.

hepatoma HepG2 cell line = experiment: Hepatotoxicity, HepG2 viability (MTS); assay type: cell-based; conditions: 72 h treatment
Method: Figure 7 The effect of 53, 60, and 62, cytostatic drug doxorubicin (DX) and the mitochondrial toxin CCCP on the hepatoma HepG2 cell line viability after 72 h of incubation at 37 °C, 5% CO2. The data were analyzed with one-way ANOVA, followed by Bonferroni’s Comparison Test (Graph Pad Prism 8.0.1 software, San Diego, CA, USA)): ** p < 0.01, **** p < 0.0001 vs. negative control (DMSO 1% in growth media).

TRPV1 (VR1) (h) [11] = molecular target: T3, TRPV1 (VR1) (h); experiment: TRPV1 (VR1) (h) antagonist effect functional assay; assay type: cell-based; conditions: human recombinant CHO cells
[12] = Metabolic stability in human liver microsomes (HLMs)
mice [13] = conditions: i.p., acute neurological deficit, cited from earlier work
[14] = Chimney test (acute neurological deficit); conditions: mouse, in vivo, ip, mice
Method: as §2, §3, §4
We also established the median toxic doses (TD50) in the chimney test 0.5 h post i.p. administration of these compounds. […]

[15] = 100 mg/kg i.p., 0.5 h, read-out: 6 Hz (32 mA) screening: number of mice protected/number of mice tested (converted)
[16] = 100 mg/kg i.p., 0.5 h, four mice, read-out: protection in 6 Hz (32 mA) screening

SMILES: O=C(C(c1ccccc1)N1C(=O)CCC1=O)N1CCN(c2cccc(C(F)(F)F)c2)CC1 (centres unmarked) [KA-104]
- ED50 MES [1]: 23.7 (18.4−31.2) mg/kg
- ED50 6 Hz (32 mA) [2]: 22.4 (17.4−28.8) mg/kg
- ED50 6 Hz (44 mA) [3]: 73.2 (57.4–93.4) mg/kg

SMILES: CC(C)(C)c1ccc(NC(=O)N2CCN(c3ncccc3Cl)CC2)cc1 [BCTC, N-(4-Tertiarybutylphenyl)-4-(3-Chloropyridin-2-Yl)Tetrahydropyrazine-1(2H)-Carbox-Amide, reference compound]
- protection in MES screening [4]: ineffective
- responders at 100 mg/kg [4]: 0%
- protection in 6 Hz (32 mA) screening ([5]; 100 mg/kg i.p., 0.5 h, four mice): ineffective
- responders at 100 mg/kg [5, 15]: 0%
- scPTZ screening: number of mice protected/number of mice tested [6]: 0/4
- protection in scPTZ screening ([6]; four mice): ineffective
- effect on capsaicin-induced hypothermia (co-administration) (mice [7]; i.p. 15 min before capsaicin 5 mg/kg): prevented the capsaicin-evoked decrease in body temperature

SMILES: CC(=O)NC(C(=O)N1CCN(c2cccc(SC(F)(F)F)c2)CC1)c1ccccc1 (centres unmarked) [Compound 62, N-(2-oxo-1-phenyl-2-(4-(3-((trifluoromethyl)thio)phenyl)piperazin-1-yl)ethyl)acet--amide]
- protection in MES screening [4]: 75%
- responders at 100 mg/kg [4]: 75%
- ED50 [4]: 76.1 mg/kg
- responders at 100 mg/kg [5, 16]: 100%
- responders at 100 mg/kg [5, 15]: 100%
- ED50 [5]: 33.2 mg/kg
- scPTZ screening: number of mice protected/number of mice tested [6]: 0/4
- % Inhibition of Control Specific Binding, Na+ channel (site 2) (Na+ channel (site 2)): 57.0 (10) %
- inhibition at 10 µM [8]: 12%
- inhibition at 10 µM [9]: 65%
- inhibition at 100 µM (TRPV1 (VR1) (h) [10]): 135%
- influence on CYP2C9 activity (recombinant human CYP2C9): weak inhibition effect
- effect on HepG2 cell viability (hepatotoxicity) (hepatoma HepG2 cell line): highest hepatotoxic risk
- IC50 (TRPV1 (VR1) (h) [11]): 10 µM
- Kb (TRPV1 (VR1) (h) [11]): 1400 nM
- remaining at 2 h ([12]; human, human liver microsomes): 84%
- Metabolic Pathway ([12]; metabolites after 120 min incubation with HLMs): hydroxylation

SMILES: CC[C@@H](C(N)=O)N1CCCC1=O [LEV, Levetiracetam]
- ED50 MES [1]: >500 mg/kg
- ED50 6 Hz (44 mA) [3]: 204.0 (154.5–269.5) mg/kg
- TD50 (rotarod test) (mice [13]; ref 32): >500 ** mg/kg
- TD50 (rotarod test) (mice [13]; ref 34): >500 ** mg/kg

SMILES: COc1cc(CNC(=O)CCCC/C=C/C(C)C)ccc1O [capsaicin]
- effect on rectal (core body) temperature, given alone (mice [7]; i.p., capsaicin 5 mg/kg): produced a significant drop in the rectal temperature

SMILES: CC(=O)NC(C(=O)N1CCN(c2cccc(Cl)c2)CC1)c1ccccc1 (centres unmarked) [Compound 47, N-(2-(4-(3-chlorophenyl)piperazin-1-yl)-2-oxo-1-phenylethyl)acetamide]
- responders at 100 mg/kg [4]: 0%
- ED50 [4]: > 150 mg/kg
- responders at 100 mg/kg [5, 16]: 75%
- responders at 100 mg/kg [5, 15]: 75%
- ED50 [5]: 88.4 mg/kg
- TD50 at 0.5 h [14]: > 500 mg/kg
- inhibition at 100 µM (TRPV1 (VR1) (h) [10]): 125%
- melting point: 145.5 to 146.7 °C

SMILES: CCCC(CCC)C(=O)O [VPA, Valproic acid]
- ED50 6 Hz (32 mA) [2]: 130.6 (117.6−145.2) mg/kg

SMILES: COC[C@@H](NC(C)=O)C(=O)NCc1ccccc1 [LCS, Lacosamide]
- ED50 MES [1]: 9.2 (8.5−10.0) mg/kg
- ED50 6 Hz (32 mA) [2]: 5.3 (3.5−7.8) mg/kg
- ED50 6 Hz (44 mA) [3]: 6.9 (5.4–8.6) mg/kg
